Converted amounts (≈) assume the structure as drawn. Where two headings read alike, the source gives them in different places.
What was measured:
Experiment in all cases: In vitro antibacterial test, MIC by broth dilution
Assay type in all cases: cell-based
Candida albicans = Candida albicans GC 3066; 18 hours at 35° C.
Method: (§1) The minimum inhibitory concentration (MIC), the lowest concentration of the antibiotic which inhibits growth of the test organism, is determined by the broth dilution method using Muller-Hinton II […] (Baltimore Biological Laboratories) following the recommendations of the National Committee for Clinical Laboratory Standards [Methods for dilution antimicrobial susceptibility tests for bacteria that grow aerobically. Approved standard M7-A2. National Committee for Clinical Laboratory Standards, Villanova, Pa.].
(§2) An inoculum level of 5×10^5 CFU/ml, and a range of antibiotic concentrations (64–0.06 μg/ml) is used. The MIC is determined after the microtiter plates are incubated for 18 hours at 35° C. in an ambient air incubator. The test organisms comprise a spectrum of Gram-positive bacteria Staphylococcus sp., Streptococcus pneumoniae, Enterococcus sp., Gram-negative bacteria Escherichia coli, and the yeast Candida albicans. These organisms include recent clinical isolates that are resistant to piperacillin or vancomycin.

Enterococcus faecalis = settings: 18 hours at 35° C.
Method: as §1, §2

Enterococcus faecium = settings: 18 h
Method: as §1, §2

Escherichia coli = settings: 18 hours at 35° C.
Method: as §1, §2

Staphylococcus aureus = settings: 18 h
Method: as §1, §2

[1] = test system: Staphylococcus haemolyticus; settings: Staphylococcus haemolyticus GC 4547, resistant to methicillin; 18 hours at 35° C.
Method: as §1, §2

Streptococcus pneumoniae = settings: 18 h
Method: as §1, §2

C=CC1C=C(C)C2C3C(Oc4ccc(cc4)CC4(O)C=C(C(=O)N4)C(=O)C13)C1C(C)CC(C)CC21C (stereo not shown) [Cyan426-A]
MIC (Candida albicans): 8 µg/mL (≈ 16.4 µM) | MIC (Enterococcus faecalis; Enterococcus faecalis GC 2242, resistant to vancomycin): 0.50 µg/mL (≈ 1.03 µM) | MIC (Enterococcus faecalis; Enterococcus faecalis GC 4555): 0.50 µg/mL (≈ 1.03 µM) | MIC (Enterococcus faecalis; Enterococcus faecalis GC 6189, read-out: MIC): 0.5 µg/mL (≈ 1.03 µM) | MIC (Enterococcus faecium; Enterococcus faecium GC 2243, marked * (resistant to methicillin), 18 hours at 35° C.): 1 µg/mL (≈ 2.05 µM) | MIC (Enterococcus faecium; Enterococcus faecium GC 4556, 18 hours at 35° C.): 1 µg/mL (≈ 2.05 µM) | MIC (Enterococcus faecium; Enterococcus faecium GC 4558, marked * (resistant to methicillin), 18 hours at 35° C.): 0.5 µg/mL (≈ 1.03 µM) | MIC (Escherichia coli; Escherichia coli GC 4559, read-out: MIC): 128 µg/mL (≈ 262 µM) | MIC (Escherichia coli; Escherichia coli, 18 h, Escherichia coli GC 4560 (imp)): 2 µg/mL (≈ 4.1 µM) | MIC (Staphylococcus aureus; Staphylococcus aureus GC 1131, resistant to methicillin, 18 hours at 35° C.): 2 µg/mL (≈ 4.1 µM) | MIC (Staphylococcus aureus; Staphylococcus aureus GC 2216, 18 hours at 35° C.): 1 µg/mL (≈ 2.05 µM) | MIC (Staphylococcus aureus; Staphylococcus aureus GC 4541, resistant to methicillin, 18 hours at 35° C.): 0.25 µg/mL (≈ 0.513 µM) | MIC (Staphylococcus aureus; Staphylococcus aureus GC 4543, 18 hours at 35° C.): 1 µg/mL (≈ 2.05 µM) | MIC [1]: 0.25 µg/mL (≈ 0.513 µM) | MIC (Streptococcus pneumoniae; Streptococcus pneumoniae GC 1894, 18 hours at 35° C.): 64 µg/mL (≈ 131 µM) | MIC (Streptococcus pneumoniae; Streptococcus pneumoniae GC 6242, 18 hours at 35° C.): 16 µg/mL (≈ 32.8 µM)
